Laboratory results published in patent US9044388B2, “Dry eye treatment” (Ocular Research of Boston, Inc., priority 2005, dated 2015).

Legend:
[1] = result in words; cited from earlier work
eye [2] = assay: Subjective sensation / stinging of emulsions and their surfactants on the eye; type: in vivo, human; details: higher concentration as sole primary surfactant
Experimental: The subjective sensation realized with both formulations was evaluated as comfortable, and without any form of adverse sensation.

eye [3] = details: in vivo; cited from earlier work
ocular surface = assay: Evaluation of comfort on the eye (sensation after one drop); type: in vivo, human; details: even in concentrations ≦0.10%
Experimental: The vehicle used for all formulations was Unisol 4, a buffered saline solution marketed by Alcon Laboratories, Fort Worth, Tex. Unisol 4 had previously been studied and found to be the most comfortable normal saline product for use on the ocular surface. It was therefore used as a vehicle for the test formulations, and was also used as a control. A drop of each of the 5 test formulations was placed on to the ocular surfaces of each subject, utilizing a 15 ml dropper container that delivered a drop of 40 μl to the ocular surface. […] The results obtained with 6 subjects, all of whom evaluated each of the test formulation on two different days are summarized in Table 3.

CCCCCCCCCCCCCCCCCC(=O)OCC(O)CO (stereo not shown) [GMS, glycerol monostearate]
solubility [1]: oil soluble

CCCCCCCC/C=C\CCCCCCCC(=O)OCCOCC(OCCO)C1OCC(OCCO)C1OCCO (stereo not shown) [Polysorbate-80]
effect of higher surfactant concentration on the eye (eye [2]): led to stinging on the eye

polyoxyethylene (40) stearate [Myrj-52]
ocular discomfort on increasing the concentration (eye [3]): significant stinging

sorbitan monolaurate [Span 20]
sting when applied to the eye and ocular surfaces (ocular surface): sting
